Laboratory results reported in PubChem BioAssay (NCI).
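All cell lines were grown in 96-well plates and treated with compound for 48 hours. At the GI50, growth is halved. The concentration for full growth arrest is given as TGI.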

Tests used:
Experiment in all cases: DTP human tumour cell line panel, 48 h
[1] = test system: SN12C renal
[2] = test system: HOP-62 NSCLC
[3] = test system: PC-3 prostate
[4] = test system: SR leukemia
[5] = test system: DU-145 prostate
[6] = test system: SNB-75 CNS
[7] = test system: CAKI-1 renal
[8] = test system: HCC-2998 colon
[9] = test system: LOX IMVI melanoma
[10] = test system: MOLT-4 leukemia
[11] = test system: SK-MEL-2 melanoma
[12] = test system: MCF7 breast
[13] = test system: A549 NSCLC
[14] = test system: UO-31 renal
[15] = test system: HCT-116 colon
[16] = test system: OVCAR-3 ovarian
[17] = test system: SK-OV-3 ovarian
[18] = test system: SK-MEL-5 melanoma
[19] = test system: NCI/ADR-RES ovarian
[20] = test system: COLO 205 colon
[21] = test system: U251 CNS
[22] = test system: M14 melanoma
[23] = test system: HT29 colon
[24] = test system: OVCAR-4 ovarian
[25] = test system: RPMI-8226 leukemia
[26] = test system: K-562 leukemia
[27] = test system: SK-MEL-28 melanoma
[28] = test system: OVCAR-5 ovarian
[29] = test system: NCI-H226 lung
[30] = test system: HS 578T breast
[31] = test system: SF-268 CNS
[32] = test system: SNB-19 CNS
[33] = test system: IGROV1 ovarian
[34] = test system: T-47D breast
[35] = test system: OVCAR-8 ovarian
[36] = test system: SW-620 colon
[37] = test system: SF-295 CNS
[38] = test system: BT-549 breast
[39] = test system: CCRF-CEM leukemia
[40] = test system: UACC-62 melanoma
[41] = test system: UACC-257 melanoma
[42] = test system: NCI-H522 lung
[43] = test system: SF-539 CNS
[44] = test system: HL-60(TB) leukemia
[45] = test system: MALME-3M melanoma
[46] = test system: ACHN renal
[47] = test system: TK-10 renal
[48] = test system: NCI-H460 lung
[49] = test system: HOP-92 NSCLC
[50] = test system: NCI-H23 lung
[51] = test system: 786-0 renal
[52] = test system: MDA-MB-435
[53] = test system: KM12 colon
[54] = test system: HCT-15 colon
[55] = test system: A498 renal
[56] = test system: MDA-MB-231 breast
[57] = test system: RXF 393 renal

Compound: C[C@]12CC[C@@H]3c4ccc(O)cc4CC[C@H]3[C@@H]1CC[C@@H]2NS(=O)(=O)c1ccc(-c2ccccc2)cc1
- GI50 [1]: 2.75 µM
- TGI [1]: 10.3 µM
- GI50 [2]: 10.5 µM
- TGI [2]: > 100 µM
- GI50 [3]: 3.18 µM
- TGI [3]: 48.9 µM
- GI50 [4]: 4.1 µM
- TGI [4]: 66.4 µM
- GI50 [5]: 6.54 µM
- TGI [5]: > 100 µM
- GI50 [6]: 3.5 µM
- TGI [6]: 55.2 µM
- GI50 [7]: 3.57 µM
- TGI [7]: > 100 µM
- GI50 [8]: 4.39 µM
- TGI [8]: > 100 µM
- GI50 [9]: 10.6 µM
- TGI [9]: 23.9 µM
- GI50 [10]: 3.47 µM
- TGI [10]: > 100 µM
- GI50 [11]: 3.78 µM
- TGI [11]: 13.6 µM
- GI50 [12]: 3.56 µM
- TGI [12]: 11.2 µM
- GI50 [13]: 3.26 µM
- TGI [13]: > 100 µM
- GI50 [14]: 3.56 µM
- TGI [14]: > 100 µM
- GI50 [15]: 2.88 µM
- TGI [15]: 11.4 µM
- GI50 [16]: 3.32 µM
- TGI [16]: 12.7 µM
- GI50 [17]: 6.79 µM
- TGI [17]: > 100 µM
- GI50 [18]: 1.71 µM
- TGI [18]: 3.26 µM
- GI50 [19]: 3.87 µM
- TGI [19]: > 100 µM
- GI50 [20]: 1.86 µM
- TGI [20]: 3.38 µM
- GI50 [21]: 4 µM
- TGI [21]: 32.6 µM
- GI50 [22]: 3.46 µM
- TGI [22]: 12.9 µM
- GI50 [23]: 3.3 µM
- TGI [23]: 9.16 µM
- GI50 [24]: 2.43 µM
- TGI [24]: 19 µM
- GI50 [25]: 2.51 µM
- TGI [25]: 11.4 µM
- GI50 [26]: 3.48 µM
- TGI [26]: > 100 µM
- GI50 [27]: 5.52 µM
- TGI [27]: 54.6 µM
- GI50 [28]: 4.76 µM
- TGI [28]: 19.2 µM
- GI50 [29]: 3.13 µM
- TGI [29]: 19.4 µM
- GI50 [30]: 7.37 µM
- TGI [30]: > 100 µM
- GI50 [31]: 3.93 µM
- TGI [31]: > 100 µM
- GI50 [32]: 4.92 µM
- TGI [32]: > 100 µM
- GI50 [33]: 6.66 µM
- TGI [33]: > 100 µM
- GI50 [34]: 3.47 µM
- TGI [34]: 49 µM
- GI50 [35]: 4.69 µM
- TGI [35]: > 100 µM
- GI50 [36]: 5.54 µM
- TGI [36]: > 100 µM
- GI50 [37]: 3.06 µM
- TGI [37]: 13.2 µM
- GI50 [38]: 2.99 µM
- TGI [38]: 11.7 µM
- GI50 [39]: 3.34 µM
- TGI [39]: > 100 µM
- GI50 [40]: 4.2 µM
- TGI [40]: 20 µM
- GI50 [41]: 4.26 µM
- TGI [41]: 32.6 µM
- GI50 [42]: 4.26 µM
- TGI [42]: 27.2 µM
- GI50 [43]: 3.91 µM
- TGI [43]: 15.7 µM
- GI50 [44]: 6.26 µM
- TGI [44]: 47.6 µM
- GI50 [45]: 3.01 µM
- TGI [45]: 12.6 µM
- GI50 [46]: 2.98 µM
- TGI [46]: 20.1 µM
- GI50 [47]: 4.42 µM
- TGI [47]: 55.9 µM
- GI50 [48]: 3.05 µM
- TGI [48]: 9.48 µM
- GI50 [49]: 2.09 µM
- TGI [49]: 9.68 µM
- GI50 [50]: 3.49 µM
- TGI [50]: 17.2 µM
- GI50 [51]: 3.82 µM
- TGI [51]: 22.5 µM
- GI50 [52]: 3.21 µM
- TGI [52]: 12.3 µM
- GI50 [53]: 3.81 µM
- TGI [53]: 18.4 µM
- GI50 [54]: 3.04 µM
- TGI [54]: 16.5 µM
- GI50 [55]: 1.96 µM
- TGI [55]: 9.13 µM
- GI50 [56]: 4.58 µM
- TGI [56]: 19.6 µM
- GI50 [57]: 2.58 µM
- TGI [57]: 8.08 µM
